The source of these data is patent publication US8008021B2, “N-terminal truncation of cardiac troponin subunits and their roles in cardiovascular disease” (Evanston Northwestern Healthcare, priority 2006, dated 2011).

The assay deals with T1, myofibril associated μ-calpain (Mus musculus, UniProt O35350).
T1 construct: To test whether endogenous calpain in the cardiac muscle contributes to TnT NH2-terminal modification; from tissue
T1 sequence (O35350 1-713): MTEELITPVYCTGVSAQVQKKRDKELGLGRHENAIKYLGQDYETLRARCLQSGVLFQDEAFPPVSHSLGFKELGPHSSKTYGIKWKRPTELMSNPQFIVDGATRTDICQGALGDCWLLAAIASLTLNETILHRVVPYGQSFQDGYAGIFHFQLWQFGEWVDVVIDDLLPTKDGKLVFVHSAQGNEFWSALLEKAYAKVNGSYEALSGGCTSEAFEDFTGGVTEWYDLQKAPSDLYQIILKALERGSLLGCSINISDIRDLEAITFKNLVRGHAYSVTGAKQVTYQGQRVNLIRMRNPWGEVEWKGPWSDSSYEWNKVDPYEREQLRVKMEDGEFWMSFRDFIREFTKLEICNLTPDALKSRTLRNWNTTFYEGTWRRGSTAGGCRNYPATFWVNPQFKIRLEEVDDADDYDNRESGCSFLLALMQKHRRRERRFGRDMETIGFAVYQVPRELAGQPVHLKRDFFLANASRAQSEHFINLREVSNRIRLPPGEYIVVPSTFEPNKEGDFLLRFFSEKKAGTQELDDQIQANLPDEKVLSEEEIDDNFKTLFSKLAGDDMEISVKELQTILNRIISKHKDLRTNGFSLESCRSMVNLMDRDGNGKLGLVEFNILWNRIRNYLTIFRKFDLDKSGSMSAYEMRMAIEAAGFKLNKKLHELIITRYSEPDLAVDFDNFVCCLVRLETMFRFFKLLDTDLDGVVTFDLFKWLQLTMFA
T1 sequence (O88456 1-268 partner): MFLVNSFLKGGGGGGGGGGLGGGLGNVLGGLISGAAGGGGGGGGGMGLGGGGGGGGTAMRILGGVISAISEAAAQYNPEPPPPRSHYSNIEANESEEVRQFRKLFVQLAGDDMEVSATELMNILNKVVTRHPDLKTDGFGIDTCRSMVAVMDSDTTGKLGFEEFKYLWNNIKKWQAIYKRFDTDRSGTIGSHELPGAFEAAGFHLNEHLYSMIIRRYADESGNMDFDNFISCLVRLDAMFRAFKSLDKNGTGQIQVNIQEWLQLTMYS
The assay can be described thus: Calpain inhibition of cTnT-ND production in TRITON X-100 extracted ventricular muscle strips (Western blot densitometry). Type of assay: biochemical. Conditions: calpain specific inhibitor; TRITON X-100 extracted mouse cardiac muscle strips. The method, then:
SDS-PAGE and Western blotting. Ventricular muscle tissues or myocytes were homogenized in Laemmli SDS-PAGE sample buffer containing 2% SDS, heated at 80° C. for 5 min, and clarified by centrifugation. Total protein extracts were resolved by 14% Laemmli gel with an acrylamide:bisacrylamide ratio of 180:1 (low cross linker) or by 15% Laemmli gel with an acrylamide:bisacrylamide ratio of 29:1 (high cross linker). The gels were stained with Coomassie Brilliant Blue R250 to reveal the resolved protein bands. Duplicate gels were electrically blotted to nitrocellulose membranes, as described previously (21). After blocking in Tris-buffered saline (TBS) containing 1% bovine serum albumin (BSA), the membrane was incubated with anti-TnT mAbs CT3, 2C8, or polyclonal antibody RATnT. The membranes were then washed with high stringency using TBS containing 0.5% TRITON® X-100 and 0.05% SDS, incubated with alkaline phosphatase-conjugated anti-mouse IgG or anti-rabbit IgG second antibodies (Sigma), washed again, and developed in 5-bromo-4-chloro-3-indolylphosphate/nitro blue tetrazolium substrate solution, as described previously (21).
TRITON® X-100 extraction of ventricular muscle strips. In an ice container, ventricular muscle was cut with a sharp razor blade into fine pieces approximately the size of isolated trabeculae. The muscle strips were washed in relaxing solution containing […], 2 mM MgCl2, 2 mM EGTA, 10 mM Tris, 0.5 mM DTT, 0.1 mM PMSF and 2 mM Na4P2O7. After centrifugation at 2,800×g at 4° C. for 15 min, the pellet was skinned in relaxing solution plus 0.5% (w/w) TRITON® X-100 at 4° C. with rotation for 10 min. After centrifugation at 14,000×g at 4° C. for 20 min, the pellet was suspended in relaxing solution without TRITON® X-100 and incubated at 37° C. with rotation. Samples were collected at a series of time points for SDS-PAGE and Western blotting to examine the modifications of cTnT and other myofibrillar proteins.
Calpain inhibition. To test whether endogenous calpain in the cardiac muscle contributes to TnT NH2-terminal modification, several different calpain inhibitors were applied to the TRITON® X-100 extraction procedure. […] TRITON® X-100 treatment of mouse ventricular muscle strips was carried out as above in the presence or absence of 100 μM hydrogen peroxide and the effect on cTnT modification was examined by Western blotting.
The effects of two cell membrane-permissible nonpeptide calpain inhibitors, PD 150606 and PD 151746 (Calbiochem), were also tested. […] PD 150606 and […] were separately added to the relaxing solution before TRITON® X-100 treatment and incubated with the minced ventricular muscle at 4° C. for 10 minutes to allow the inhibitor to penetrate cell membrane and bind to calpain. After TRITON® X-100 extraction, samples were collected for SDS-PAGE and Western blotting to examine the effect on cTnT modification.
Background: A western blot detects proteins with antibodies after separation by electrophoresis.

As for `O=C(O)/C(S)=C/c1c[nH]c2ccc(F)cc12` [PD151746], the “cTnT-ND production decreased to” value is recorded as 50% and the “decrease in cTnT-ND72-291 production” value is “approximately 50%”.
On the same counts, the results for `O=C(O)/C(S)=C/c1ccc(I)cc1` [PD150606] are 63% and “approximately 37%”.
